These results are taken from patent US20100009014A1, “Use of composition for manufacture of medicant and method for inhibiting formation of body fat” (Maxluck Biotechnology Corp., priority 2008, published 2010).

The nature of this assay: Epididymal fat weight and body weight, lactoferrin vs trivalent chromium vs combination (Test Example 5). The assay is classed as in vivo, C57BL/6JNarl mice. Particulars: fed 7 weeks; for Body weight / Epididymal fat weight: high-fat diet. As to the method:
The C57BL/6JNarl mice (N=70) are fed with a mouse diet (high-fat Rodent TestDiet, PMI Nutrition International Inc., MO, U.S.A.; 67% of calories provided by fat). The C57BL/6JNarl mice are randomly divided into seven groups and there are ten mice in each group. In one experimental group, the mice are fed with the mouse diet mixed with lactoferrin (NZMP lactoferrin, New Zealand, low dose: 40 mg/kg BW/day, high dose: 80 mg/kg BW/day). In another experimental group, the mice are fed with the mouse diet mixed with trivalent chromium (chromium (III) chloride hexahydrate, low dose: 40 μg/kg BW/day Cr^3+, high dose: 80 μg/kg BW/day Cr^3+). In yet another experimental group, the mice are fed with the mouse diet mixed with a lactoferrin/trivalent chromium composition (low dose: lactoferrin of 40 mg/kg BW/day with Cr^3+ of 40 μg/kg BW/day, high dose: lactoferrin of 80 mg/kg BW/day with Cr^3+ of 80 μg/kg BW/day). In the control group, the mice are fed with the mouse diet containing no other additive. The C57BL/6JNarl mice aged 8 weeks are fed for 7 weeks and then sacrificed to measure the weight of Epididymal fat and body weight, as shown in Table 5.
Accordingly, it can be known that the lactoferrin/trivalent chromium composition provides more significant efficiency in comparison to single lactoferrin or trivalent chromium.

Where [1] appears, read: High dose (lactoferrin 80 mg/kg BW/day and/or Cr3+ 80 μg/kg BW/day).
Setting [2] is: Low dose (lactoferrin 40 mg/kg BW/day and/or Cr3+ 40 μg/kg BW/day).

With `O.O.O.O.O.O.[Cl][Cr]([Cl])[Cl]` [Trivalent Chromium, chromium (III) chloride hexahydrate], the “Epididymal fat weight and body weight vs control group (in words)” value is recorded as “cannot achieve significant efficiency”. In addition, under setting [1], the Body weight came out at 27.7 ± 1.35 g and the Epididymal fat weight came to 0.82 ± 0.2 g. Besides, under setting [2], the Body weight was 27.8 ± 1.33 g and the Epididymal fat weight is given as 0.78 ± 0.16 g.
